Results: BindingDB's records for doi:10.7270/Q24X565S (The Scripps Research Institute Molecular Screening Center, 2007)
Structures can show the parent of a compound that is named as a salt.

Target: cAMP-dependent protein kinase catalytic subunit alpha (Homo sapiens, UniProt P17612)
Assay: PKA catalytic subunit inhibitors, dose response, biochemical, Kinase-Glo luminescence, Kemptide substrate (AID 548)
[1] = inactive by the depositor's call

Row | IC50 [µM] | IC50 [1] [µM] | Structure (SMILES)
1 | 24.6 |  | O=C(CSc1nnc(-c2ccncc2)[nH]1)c1ccccc1
2 | > 59.6 |  | Nc1c(S(=O)(=O)c2cccc(Cl)c2)c2c(n1N=CC1=CC(=O)C(=O)C=C1)Nc1ccccc1N2 [4-[[2-azanyl-3-(3-chlorophenyl)sulfonyl-4,9-dihydropyrrolo[3,2-b]quinoxalin-1-yl]iminomethyl]cyclohexa-3,5-diene-1,2-dione]
3 | > 59.6 |  | COc1ccc2c(Cl)c(C(N)=O)sc2c1 [3-Chloro-6-methoxy-benzo[b]thiophene-2-carboxylic acid amide]
4 | > 59.6 |  | CN(C(=O)COc1ccccc1)c1nnc(-c2ccncc2)s1 [MLS000075421]
5 | > 59.6 |  | O=C(CCCOc1ccccc1)Nc1ccncc1 [4-Phenoxy-N-pyridin-4-yl-butyramide]
6 |  | 70.1 | CC1(C)Cc2c(c(-c3ccco3)nc3n[nH]c(N)c23)CO1 [SMR000045457]
7 | > 59.6 |  | CCc1cc2c(O)ncnc2s1 [MLS000029626]
8 | > 59.6 |  | Nc1[nH]nc2nc(N3CCCC3)nc(-c3ccccc3)c12
9 | 11.3 |  | c1ccc2c(-c3ccncc3)c[nH]c2c1
10 | 35.6 |  | c1nc(N2CCCC2)c2[nH]cnc2n1 [6-(1-pyrrolidinyl)-7H-purine]
11 | > 59.6 |  | Cc1ccc(SCc2nc(-c3ccncc3)no2)cc1 [4-(5-{[(4-methylphenyl)thio]methyl}-1,2,4-oxadiazol-3-yl)pyridine]
12 | > 59.6 |  | Nc1nonc1-n1nncc1-c1ccccc1 [4-(5-phenyl-1,2,3-triazol-1-yl)-1,2,5-oxadiazol-3-amine]
13 | > 59.6 |  | Fc1cc2nc(-c3ccncc3)[nH]c2cc1F [SMR000040673]
14 | 37.5 |  | COc1cc2c(cc1NC(=O)COC(=O)Cn1cnc3ccccc31)oc1ccccc12 [2-(1-benzimidazolyl)acetic acid [2-[(2-methoxy-3-dibenzofuranyl)amino]-2-oxoethyl] ester]
15 | > 59.6 |  | Cc1cc2ccccc2c(=O)n1CC(=O)Nc1ccc2c(c1)OCO2 [MLS000086255]
16 | 52.3 |  | Fc1ccccc1N1CCN(c2ncnc3n[nH]cc23)CC1 [4-[4-(2-fluorophenyl)piperazin-1-yl]-1H-pyrazolo[3,4-d]pyrimidine]
17 | 59.2 |  | Clc1ccc(OCCN2CCN(c3ncnc4sccc34)CC2)cc1 [4-[4-[2-(4-chloranylphenoxy)ethyl]piperazin-1-yl]thieno[2,3-d]pyrimidine]
18 | > 19.9 |  | c1ccc(Cn2ncc3c2ncn2c(-c4ccncc4)nnc32)cc1 [7-Benzyl-3-pyridin-4-yl-7H-pyrazolo[4,3-e][1,2,4]triazolo[4,3-c]pyrimidine]
19 | 8.94 |  | c1nc(NC2CCCCC2)c2[nH]cnc2n1 [N-cyclohexyl-7H-purin-6-amine]
20 | > 59.6 |  | Cn1c(SCc2ccc(Br)cc2)nnc1-c1ccncc1 [4-[5-[(4-bromobenzyl)thio]-4-methyl-1,2,4-triazol-3-yl]pyridine]
21 | > 59.6 |  | Cc1cccc(NC(=O)CSc2n[nH]c(-c3ccncc3)n2)c1 [N-(3-methylphenyl)-2-[(5-pyridin-4-yl-1H-1,2,4-triazol-3-yl)thio]acetamide]
22 | > 19.9 |  | c1ccc(Cn2ncc3c2ncn2nc(-c4ccncc4)nc32)cc1 [MLS000078634]
23 |  | 358 | NC(=O)c1sc2nc(N3CCCCC3)c3c(c2c1N)CCCC3 [1-amino-5-(1-piperidinyl)-6,7,8,9-tetrahydrothieno[2,3-c]isoquinoline-2-carboxamide]
24 | 39.5 |  | c1ccc(CCCNc2[nH]cnc3ncnc2-3)cc1
25 | 45 |  | CC(=O)n1cc(-c2ccncc2)c2ccccc21 [1-(3-pyridin-4-yl-1-indolyl)ethanone;hydrochloride]
26 | 10.4 |  | Cc1ccc(S(=O)(=O)NCCSc2nnnn2-c2ccc(C(N)=O)cc2)cc1 [4-[5-[2-(tosylamino)ethylthio]tetrazol-1-yl]benzamide]
27 |  | 231 | Fc1ccccc1Cn1nnc2c(-n3ccnc3)ncnc21 [3-(2-Fluoro-benzyl)-7-imidazol-1-yl-3H-[1,2,3]triazolo[4,5-d]pyrimidine]
28 | > 59.6 |  | CCOc1ccc2nc3ccc4[nH]onc4c3c2c1 [SMR000111865]
29 | 50.5 |  | Cc1cc2c(ccc3[nH]onc32)n1 [MLS000038925]
30 | 13.6 |  | CCC1CCCCN1c1nc(-c2ccncc2)nc2ccccc12 (centres undefined) [4-(2-ethyl-1-piperidinyl)-2-pyridin-4-ylquinazoline]

Row | Structure (SMILES) | IC50 [µM] | IC50 [1] [µM]
31 | CCN1CCN(Cc2nnnn2C(C)(C)C)CC1 [1-(1-tert-Butyl-1H-tetrazol-5-ylmethyl)-4-ethyl-piperazine] | > 59.6 | 
32 | C1=C(c2c[nH]c3ccccc23)CCNC1 | > 59.6 | 
33 | Cc1c2ccncc2c(C)c2c1[nH]c1ccccc12 [5,11-dimethyl-2H-pyrido[4,3-b]carbazole] | 4.09 | 
34 | O=NCc1c[nH]c2ccccc12 [MLS000104363] | 34.4 | 
